# Experimental data taken from patent US6525001B1, “Substituted pyrimidine and pyridine herbicides” (Mid-American Commercialization Corporation, priority 1997, dated 2003).
# Tests used:
# Format in all cases: in vivo
# Design in all cases: key: 0 is no effect; 10 is complete control
# [1] = test system: bedstraw (Galium aparine); experiment: Test B pre-/postemergence
# Excerpt: (§1) Seeds of bedstraw (Galium aparine), blackgrass (Alopecurus myosuroides), broadleaf signalgrass (Brachiaria decumbens), cocklebur (Xanthium strumarium), corn (Zea mays), crabgrass (Digitaria sanguinalis), giant foxtail (Setaria faberii), lambsquarters (Chenopodium album), momingglory (Ipomoea hederacea), pigweed (Amaranthus retroflexus), rape (Brassica napus), soybean (Glycine max), sugar beet (Beta vulgaris), velvetleaf (Abutilon theophrasti), wheat (Triticum aestivum), wild oat (Avena fatua) and purple nutsedge (Cyperus rotundus) tubers were planted and treated preemergence with test chemicals formulated in a non-phytotoxic solvent mixture which included a surfactant.
# (§2) At the same time, these crop and weed species were also treated with postemergence applications of test chemicals formulated in the same manner. Plants ranged in height from 2 to 18 cm (1- to 4-leaf stage) for postemergence treatments. Plant species in the flood test consisted of rice (Oryza sativa), smallflower flatsedge (Cyperus difformis), duck salad (Heteranthera limosa) and bamyardgrass (Echinochloa crus-galli) grown to the 2-leaf stage for testing. Treated plants and controls were maintained in a greenhouse for twelve to sixteen days, after which all species were compared to controls and visually evaluated. Plant response ratings, summarized in Table B, are based on a scale of 0 to 10 where 0 is no effect and 10 is complete control. A dash (−) response means no test result.
# [2] = test system: blackgrass (Alopecurus myosuroides); experiment: Test B pre-/postemergence
# Excerpt: as §1, §2
# [3] = test system: broadleaf signalgrass (Brachiaria decumbens); experiment: Test B pre-/postemergence
# Excerpt: as §1, §2
# [4] = test system: cocklebur (Xanthium strumarium); experiment: Test B pre-/postemergence
# Excerpt: as §1, §2
# corn (Zea mays) = experiment: Test B pre-/postemergence
# Excerpt: as §1, §2
# [5] = test system: crabgrass (Digitaria sanguinalis); experiment: Test B pre-/postemergence
# Excerpt: as §1, §2
# [6] = test system: giant foxtail (Setaria faberii); experiment: Test B pre-/postemergence
# Excerpt: as §1, §2
# [7] = test system: momingglory (Ipomoea hederacea); experiment: Test B pre-/postemergence
# Excerpt: as §1, §2
# [8] = test system: pigweed (Amaranthus retroflexus); experiment: Test B pre-/postemergence
# Excerpt: as §1, §2
# [9] = test system: purple nutsedge (Cyperus rotundus); experiment: Test B pre-/postemergence
# Excerpt: as §1, §2
# rape (Brassica napus) = experiment: Test B pre-/postemergence
# Excerpt: as §1, §2
# soybean (Glycine max) = experiment: Test B pre-/postemergence
# Excerpt: as §1, §2
# [10] = test system: sugar beet (Beta vulgaris); experiment: Test B pre-/postemergence
# Excerpt: as §1, §2
# [11] = test system: velvetleaf (Abutilon theophrasti); experiment: Test B pre-/postemergence
# Excerpt: as §1, §2
# [12] = test system: wheat (Triticum aestivum); experiment: Test B pre-/postemergence
# Excerpt: as §1, §2
# wild oat (Avena fatua) = experiment: Test B pre-/postemergence
# Excerpt: as §1, §2
# [13] = test system: bamyardgrass (Echinochloa crus-galli); experiment: Test B flood test
# Method in brief: (§3)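 Each value is a visual injury score relative to controls, with 10 meaning complete control and 0 no effect. Evaluation took place twelve to sixteen days after the 2-leaf-stage plants were treated and kept in the greenhouse.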
# [14] = test system: duck salad (Heteranthera limosa); experiment: Test B flood test
# Method in brief: as §3
# rice (Oryza sativa) = experiment: Test B flood test
# Method in brief: as §3
# [15] = test system: smallflower flatsedge (Cyperus difformis); experiment: Test B flood test
# Method in brief: as §3
# [16] = Rate 62 g/ha, Postemergence (flood test)
# [17] = Rate 125 g/ha, Postemergence, flood test
# [18] = Rate 250 g/ha, Postemergence (flood test species)
structure (smiles),measurement,setting,value
Cc1cnc(-c2ccc(C(F)(F)F)cc2)nc1C(C)c1cccc(C(F)(F)F)c1 (racemic) [Compound 19],"Plant response rating, Bedstraw","[1]; Rate 62 g/ha, Postemergence",2
same,Bedstraw plant response rating,"[1]; Rate 62 g/ha, Preemergence",0
same,"Plant response rating, Bedstraw","[1]; Rate 125 g/ha, Postemergence",3
same,Bedstraw plant response rating,"[1]; Rate 125 g/ha, Preemergence",0
same,"Plant response rating, Bedstraw","[1]; Rate 250 g/ha, Postemergence",3
same,"Plant response rating, Bedstraw","[1]; Rate 250 g/ha, Preemergence",0
same,"Plant response rating, Blackgrass","[2]; Rate 62 g/ha, Postemergence",1
same,Blackgrass plant response rating,"[2]; Rate 62 g/ha, Preemergence",0
same,"Plant response rating, Blackgrass","[2]; Rate 125 g/ha, Postemergence",1
same,Blackgrass plant response rating,"[2]; Rate 125 g/ha, Preemergence",0
same,"Plant response rating, Blackgrass","[2]; Rate 250 g/ha, Postemergence",1
same,"Plant response rating, Blackgrass","[2]; Rate 250 g/ha, Preemergence",0
same,"Plant response rating, B. signalgrass","[3]; Rate 62 g/ha, Postemergence",1
same,B. signalgrass plant response rating,"[3]; Rate 62 g/ha, Preemergence",0
same,"Plant response rating, B. signalgrass","[3]; Rate 125 g/ha, Postemergence",2
same,B. signalgrass plant response rating,"[3]; Rate 125 g/ha, Preemergence",0
same,"Plant response rating, B. signalgrass","[3]; Rate 250 g/ha, Postemergence",2
same,"Plant response rating, B. signalgrass","[3]; Rate 250 g/ha, Preemergence",0
same,"Plant response rating, Cocklebur","[4]; Rate 62 g/ha, Postemergence",2
same,Cocklebur plant response rating,"[4]; Rate 62 g/ha, Preemergence",0
same,"Plant response rating, Cocklebur","[4]; Rate 125 g/ha, Postemergence",3
same,"Plant response rating, Cocklebur","[4]; Rate 250 g/ha, Postemergence",3
same,"Plant response rating, Cocklebur","[4]; Rate 250 g/ha, Preemergence",0
same,"Plant response rating, Corn","corn (Zea mays); Rate 62 g/ha, Postemergence",1
same,Corn plant response rating,"corn (Zea mays); Rate 62 g/ha, Preemergence",0
same,"Plant response rating, Corn","corn (Zea mays); Rate 125 g/ha, Postemergence",2
same,Corn plant response rating,"corn (Zea mays); Rate 125 g/ha, Preemergence",0
same,"Plant response rating, Corn","corn (Zea mays); Rate 250 g/ha, Postemergence",3
same,"Plant response rating, Corn","corn (Zea mays); Rate 250 g/ha, Preemergence",0
same,"Plant response rating, Crabgrass","[5]; Rate 62 g/ha, Postemergence",1
same,Crabgrass plant response rating,"[5]; Rate 62 g/ha, Preemergence",0
same,"Plant response rating, Crabgrass","[5]; Rate 125 g/ha, Postemergence",2
same,Crabgrass plant response rating,"[5]; Rate 125 g/ha, Preemergence",0
same,"Plant response rating, Crabgrass","[5]; Rate 250 g/ha, Postemergence",2
same,"Plant response rating, Crabgrass","[5]; Rate 250 g/ha, Preemergence",0
same,"Plant response rating, Giant foxtail","[6]; Rate 62 g/ha, Postemergence",0
same,Giant foxtail plant response rating,"[6]; Rate 62 g/ha, Preemergence",0
same,"Plant response rating, Giant foxtail","[6]; Rate 125 g/ha, Postemergence",0
same,Giant foxtail plant response rating,"[6]; Rate 125 g/ha, Preemergence",0
same,"Plant response rating, Giant foxtail","[6]; Rate 250 g/ha, Postemergence",1
same,"Plant response rating, Giant foxtail","[6]; Rate 250 g/ha, Preemergence",0
same,"Plant response rating, Morningglory","[7]; Rate 62 g/ha, Postemergence",3
same,Morningglory plant response rating,"[7]; Rate 62 g/ha, Preemergence",0
same,"Plant response rating, Morningglory","[7]; Rate 125 g/ha, Postemergence",3
same,Morningglory plant response rating,"[7]; Rate 125 g/ha, Preemergence",0
same,"Plant response rating, Morningglory","[7]; Rate 250 g/ha, Postemergence",6
same,"Plant response rating, Morningglory","[7]; Rate 250 g/ha, Preemergence",0
same,"Plant response rating, Redroot pigweed","[8]; Rate 62 g/ha, Postemergence",2
same,Redroot pigweed plant response rating,"[8]; Rate 62 g/ha, Preemergence",0
same,"Plant response rating, Redroot pigweed","[8]; Rate 125 g/ha, Postemergence",5
same,Redroot pigweed plant response rating,"[8]; Rate 125 g/ha, Preemergence",0
same,"Plant response rating, Redroot pigweed","[8]; Rate 250 g/ha, Postemergence",7
same,"Plant response rating, Redroot pigweed","[8]; Rate 250 g/ha, Preemergence",0
same,"Plant response rating, Nutsedge","[9]; Rate 62 g/ha, Postemergence",0
same,Nutsedge plant response rating,"[9]; Rate 62 g/ha, Preemergence",0
same,"Plant response rating, Nutsedge","[9]; Rate 125 g/ha, Postemergence",0
same,Nutsedge plant response rating,"[9]; Rate 125 g/ha, Preemergence",0
same,"Plant response rating, Nutsedge","[9]; Rate 250 g/ha, Postemergence",0
same,"Plant response rating, Nutsedge","[9]; Rate 250 g/ha, Preemergence",0
same,"Plant response rating, Rape","rape (Brassica napus); Rate 62 g/ha, Postemergence",2
same,Rape plant response rating,"rape (Brassica napus); Rate 62 g/ha, Preemergence",0
same,"Plant response rating, Rape","rape (Brassica napus); Rate 125 g/ha, Postemergence",2
same,Rape plant response rating,"rape (Brassica napus); Rate 125 g/ha, Preemergence",0
same,"Plant response rating, Rape","rape (Brassica napus); Rate 250 g/ha, Postemergence",3
same,"Plant response rating, Rape","rape (Brassica napus); Rate 250 g/ha, Preemergence",0
same,"Plant response rating, Soybean","soybean (Glycine max); Rate 62 g/ha, Postemergence",2
same,Soybean plant response rating,"soybean (Glycine max); Rate 62 g/ha, Preemergence",0
same,"Plant response rating, Soybean","soybean (Glycine max); Rate 125 g/ha, Postemergence",3
same,Soybean plant response rating,"soybean (Glycine max); Rate 125 g/ha, Preemergence",0
same,"Plant response rating, Soybean","soybean (Glycine max); Rate 250 g/ha, Postemergence",4
same,"Plant response rating, Soybean","soybean (Glycine max); Rate 250 g/ha, Preemergence",0
same,"Plant response rating, Sugarbeets","[10]; Rate 62 g/ha, Postemergence",2
same,Sugarbeets plant response rating,"[10]; Rate 62 g/ha, Preemergence",0
same,"Plant response rating, Sugarbeets","[10]; Rate 125 g/ha, Postemergence",4
same,Sugarbeets plant response rating,"[10]; Rate 125 g/ha, Preemergence",0
same,"Plant response rating, Sugarbeets","[10]; Rate 250 g/ha, Postemergence",6
same,"Plant response rating, Sugarbeets","[10]; Rate 250 g/ha, Preemergence",0
same,"Plant response rating, Velvetleaf","[11]; Rate 62 g/ha, Postemergence",1
same,Velvetleaf plant response rating,"[11]; Rate 62 g/ha, Preemergence",0
same,"Plant response rating, Velvetleaf","[11]; Rate 125 g/ha, Postemergence",2
same,Velvetleaf plant response rating,"[11]; Rate 125 g/ha, Preemergence",0
same,"Plant response rating, Velvetleaf","[11]; Rate 250 g/ha, Postemergence",2
same,"Plant response rating, Velvetleaf","[11]; Rate 250 g/ha, Preemergence",0
same,"Plant response rating, Wheat","[12]; Rate 62 g/ha, Postemergence",0
same,Wheat plant response rating,"[12]; Rate 62 g/ha, Preemergence",0
same,"Plant response rating, Wheat","[12]; Rate 125 g/ha, Postemergence",0
same,Wheat plant response rating,"[12]; Rate 125 g/ha, Preemergence",0
same,"Plant response rating, Wheat","[12]; Rate 250 g/ha, Postemergence",0
same,"Plant response rating, Wheat","[12]; Rate 250 g/ha, Preemergence",0
same,"Plant response rating, Wild oats","wild oat (Avena fatua); Rate 62 g/ha, Postemergence",0
same,Wild oats plant response rating,"wild oat (Avena fatua); Rate 62 g/ha, Preemergence",0
same,"Plant response rating, Wild oats","wild oat (Avena fatua); Rate 125 g/ha, Postemergence",1
same,Wild oats plant response rating,"wild oat (Avena fatua); Rate 125 g/ha, Preemergence",0
same,"Plant response rating, Wild oats","wild oat (Avena fatua); Rate 250 g/ha, Postemergence",2
same,"Plant response rating, Wild oats","wild oat (Avena fatua); Rate 250 g/ha, Preemergence",0
same,"Plant response rating, Barnyardgrass",[13]; [16],0
same,"Plant response rating, Barnyardgrass",[13]; [17],2
same,"Plant response rating, Barnyardgrass",[13]; [18],3
same,"Plant response rating, Ducksalad",[14]; [16],0
same,"Plant response rating, Ducksalad",[14]; [17],2
same,"Plant response rating, Ducksalad",[14]; [18],7
same,"Plant response rating, Rice",rice (Oryza sativa); [16],0
same,"Plant response rating, Rice",rice (Oryza sativa); [17],0
same,"Plant response rating, Rice",rice (Oryza sativa); [18],2
same,"Plant response rating, S. Flatsedge",[15]; [16],0
same,"Plant response rating, S. Flatsedge",[15]; [17],2
same,"Plant response rating, S. Flatsedge",[15]; [18],6
